Data taken from PubChem BioAssay AID330 (DTP/NCI, 2004).
Where “and” joins values, the source holds several entries; their conditions need not be identical. Equal entries are not always repeated. Toxic doses and inconclusive results are not listed. How the source made its calls: active means survival T/C of 150% or more; inactive means T/C below 125% in these data.

Tested on: P388 leukemia ip, CD2F1 mice, survival T/C
Assay: NCI In Vivo Anticancer Drug Screen. Data for tumor model P388 Leukemia (intraperitoneal) in CD2F1 (CDF1) mice
Settings: endpoint: median survival time, higher = longer survival
Method in brief: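 Mice carrying the transplanted tumor received test compound or vehicle. Survival was recorded in each group, and the value is the treated-group measurement divided by that of the vehicle-treated control group.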

[1] = dose: 25.0 mg/kg/injection, schedule: Q01DX005 (ip), vehicle: Klucel (hydroxypropylcellulose) (HPC)
[2] = dose: 50.0 mg/kg/injection, schedule: Q01DX005 (ip), vehicle: Klucel (hydroxypropylcellulose) (HPC)
[3] = dose: 60.0 mg/kg/injection, schedule: Q01DX005 (ip), vehicle: saline with Tween-80
[4] = dose: 120.0 mg/kg/injection, schedule: Q01DX005 (ip), vehicle: saline with Tween-80
[5] = dose: 240.0 mg/kg/injection, schedule: Q01DX005 (ip), vehicle: saline with Tween-80
[6] = dose: 100.0 mg/kg/injection, schedule: Q04DX002 (ip), vehicle: Klucel (hydroxypropylcellulose) (HPC)
[7] = dose: 200.0 mg/kg/injection, schedule: Q04DX002 (ip), vehicle: Klucel (hydroxypropylcellulose) (HPC)
[8] = dose: 400.0 mg/kg/injection, schedule: Q04DX002 (ip), vehicle: Klucel (hydroxypropylcellulose) (HPC)
[9] = dose: 50.0 mg/kg/injection, schedule: Q01DX005 (ip), vehicle: saline with Tween-80
[10] = dose: 100.0 mg/kg/injection, schedule: Q01DX005 (ip), vehicle: saline with Tween-80
[11] = dose: 200.0 mg/kg/injection, schedule: Q01DX005 (ip), vehicle: saline with Tween-80
[12] = dose: 12.5 mg/kg/injection, schedule: Q01DX009 (ip), vehicle: Klucel (hydroxypropylcellulose) (HPC)
[13] = dose: 50.0 mg/kg/injection, schedule: Q01DX009 (ip), vehicle: Klucel (hydroxypropylcellulose) (HPC)
[14] = dose: 25.0 mg/kg/injection, schedule: Q01DX009 (ip), vehicle: saline with Tween-80
[15] = dose: 100.0 mg/kg/injection, schedule: Q01DX005 (ip), vehicle: Klucel (hydroxypropylcellulose) (HPC)
[16] = dose: 200.0 mg/kg/injection, schedule: Q01DX005 (ip), vehicle: Klucel (hydroxypropylcellulose) (HPC)

Measured: T/C

CCCCCC1(O)OC(=O)C(C)=C1C (configuration not stated)
inactive: dose: 12.5 mg/kg/injection, schedule: Q04DX003 (ip), vehicle: saline 100 % of control | dose: 25.0 mg/kg/injection, schedule: Q04DX003 (ip), vehicle: saline 100 % of control | dose: 50.0 mg/kg/injection, schedule: Q04DX003 (ip), vehicle: saline 122 % of control

Cc1cccc(-n2c(N)cc(=O)[nH]c2=S)n1
inactive: dose: 25.0 mg/kg/injection, schedule: Q01DX001 (ip), vehicle: saline with Tween-80 100 % of control | dose: 50.0 mg/kg/injection, schedule: Q01DX001 (ip), vehicle: saline with Tween-80 100 % of control | dose: 100.0 mg/kg/injection, schedule: Q01DX001 (ip), vehicle: saline with Tween-80 109 % of control

CSc1ncc(CO)c(N)n1
inactive: dose: 100.0 mg/kg/injection, schedule: Q04DX003 (ip), vehicle: Klucel (hydroxypropylcellulose) (HPC) 90 % of control | dose: 200.0 mg/kg/injection, schedule: Q04DX003 (ip), vehicle: Klucel (hydroxypropylcellulose) (HPC) 95 % of control | dose: 400.0 mg/kg/injection, schedule: Q04DX003 (ip), vehicle: Klucel (hydroxypropylcellulose) (HPC) 95 % of control

COc1ccc(Cc2c3cc(OC)c(OC)cc3cc[n+]2CC(=O)c2ccc(F)cc2)cc1OC
inactive: [1] 108 % of control | [2] 100 % of control

O=Cc1ccccc1-c1ccccc1C=O
inactive: dose: 100.0 mg/kg/injection, schedule: Q04DX002 (ip), vehicle: saline with Tween-80 106 % of control | dose: 200.0 mg/kg/injection, schedule: Q04DX002 (ip), vehicle: saline with Tween-80 103 % of control

Cc1ccc(NC(=O)CCCC(=O)C(C#N)c2ccccc2Cl)cc1C (configuration not stated)
inactive: [3] 102 % of control | [4] 108 % of control | [5] 101 % of control

BOc1ccc(C)cc1CN(C)Cc1ccccc1
inactive: [6] 103 % of control | [7] 99 % of control | [8] 104 % of control

Cc1cc(Br)ccc1N1CSC(=S)N(c2ccc(Br)cc2C)C1
inactive: [9] 88 % of control | [10] 90 % of control | [11] 93 % of control

O=C(NCC(CC(NC(=O)c1ccccc1)C(=O)O)NC(=O)c1ccccc1)c1ccccc1 (configuration not stated)
inactive: [12] 89 % of control | dose: 25.0 mg/kg/injection, schedule: Q01DX009 (ip), vehicle: Klucel (hydroxypropylcellulose) (HPC) 91 % of control | [13] 93 % of control | dose: 100.0 mg/kg/injection, schedule: Q01DX009 (ip), vehicle: Klucel (hydroxypropylcellulose) (HPC) 89 % of control | dose: 200.0 mg/kg/injection, schedule: Q01DX009 (ip), vehicle: Klucel (hydroxypropylcellulose) (HPC) 90 % of control

O=[N+]([O-])c1ccc(O)c([N+](=O)[O-])c1
inactive: dose: 1.0 mg/kg/injection, schedule: Q01DX005 (ip), vehicle: saline with Tween-80 96 % of control | dose: 2.0 mg/kg/injection, schedule: Q01DX005 (ip), vehicle: saline with Tween-80 108 % of control | dose: 4.0 mg/kg/injection, schedule: Q01DX005 (ip), vehicle: saline with Tween-80 106 % of control | dose: 6.25 mg/kg/injection, schedule: Q01DX009 (ip), vehicle: saline with Tween-80 100 % of control | dose: 8.0 mg/kg/injection, schedule: Q01DX005 (ip), vehicle: saline with Tween-80 104 % of control | dose: 12.5 mg/kg/injection, schedule: Q01DX009 (ip), vehicle: saline with Tween-80 100 % of control | dose: 16.0 mg/kg/injection, schedule: Q01DX005 (ip), vehicle: saline with Tween-80 103 % of control | [14] 90 % of control | dose: 25.0 mg/kg/injection, schedule: Q04DX003 (ip), vehicle: saline with Tween-80 90 % of control | dose: 32.0 mg/kg/injection, schedule: Q01DX005 (ip), vehicle: saline with Tween-80 102 % of control

CCCN(CCC)c1nsc(N)n1
inactive: dose: 7.5 mg/kg/injection, schedule: Q01DX009 (ip), vehicle: saline with Tween-80 113 % of control | dose: 15.0 mg/kg/injection, schedule: Q01DX009 (ip), vehicle: saline with Tween-80 113 % of control | dose: 30.0 mg/kg/injection, schedule: Q01DX009 (ip), vehicle: saline with Tween-80 118 % of control

C1=CN2C(c3ccccc3)=NN(c3ccccc3)[C@@H]2c2ccccc21
inactive: dose: 1.87 mg/kg/injection, schedule: Q01DX005 (ip), vehicle: saline with Tween-80 102 % of control | dose: 3.75 mg/kg/injection, schedule: Q01DX005 (ip), vehicle: saline with Tween-80 102 % of control | dose: 7.5 mg/kg/injection, schedule: Q01DX005 (ip), vehicle: saline with Tween-80 103 % of control and 93 % of control

O=C(NC(Cc1ccccc1)C(=O)O)C(Cl)Cl (configuration not stated)
inactive: [2] 91 % of control | [15] 100 % of control | [16] 100 % of control

S=C([S-])N[N-]c1ccccc1.S=C([S-])N[N-]c1ccccc1.[Ni]
inactive: dose: 100.0 mg/kg/injection, schedule: Q04DX003 (ip), vehicle: saline with Tween-80 97 % of control | dose: 200.0 mg/kg/injection, schedule: Q04DX003 (ip), vehicle: saline with Tween-80 100 % of control | dose: 400.0 mg/kg/injection, schedule: Q04DX003 (ip), vehicle: saline with Tween-80 100 % of control

CN(C(=S)S(=O)(=O)C12CC3CC(CC(C3)C1)C2)c1ccccc1
inactive: [12] 118 % of control | [13] 124 % of control

O=C1NCC2CCCCC12 (configuration not stated)
inactive: [2] 107 % of control | [15] 99 % of control | [16] 100 % of control

Cc1c(Cl)cnc(N)c1Cl (tested in a mixture with another compound)
inactive: [14] 93 % of control | dose: 50.0 mg/kg/injection, schedule: Q01DX009 (ip), vehicle: saline with Tween-80 90 % of control | dose: 100.0 mg/kg/injection, schedule: Q01DX009 (ip), vehicle: saline with Tween-80 93 % of control | dose: 200.0 mg/kg/injection, schedule: Q01DX009 (ip), vehicle: saline with Tween-80 95 % of control

O=C1COC(C(=O)c2ccccc2)C(=O)N1 (configuration not stated)
inactive: [3] 98 % of control | [4] 95 % of control | [5] 95 % of control

Cc1c2c(c(O)c3c(O)cccc13)C(=O)C1(O)C(O)=C(C(=O)NCNc3ccc(C(N)=O)cn3)C(=O)C(N(C)C)C1C2 (configuration not stated)
inactive: dose: 3.12 mg/kg/injection, schedule: Q01DX005 (ip), vehicle: saline 111 % of control | dose: 6.25 mg/kg/injection, schedule: Q01DX005 (ip), vehicle: saline 114 % of control and 117 % of control | dose: 12.5 mg/kg/injection, schedule: Q01DX005 (ip), vehicle: saline 114 % of control | dose: 25.0 mg/kg/injection, schedule: Q01DX005 (ip), vehicle: saline 120 % of control

CCN(CC)Cc1cc(N=Nc2cc(OC)c(N=Nc3ccc([N+](=O)[O-])cc3)cc2OC)c2cccnc2c1O
inactive: [1] 107 % of control | [2] 106 % of control and 107 % of control and 114 % of control | [15] 112 % of control and 117 % of control and 123 % of control | [16] 112 % of control and 117 % of control | dose: 400.0 mg/kg/injection, schedule: Q01DX005 (ip), vehicle: Klucel (hydroxypropylcellulose) (HPC) 116 % of control

O=C1c2ccccc2C(=O)c2c(O)c(CBr)c(CBr)c(O)c21
inactive: [9] 96 % of control | [10] 104 % of control | [11] 95 % of control

Cc1[nH]nc2c(NC[c-]3[c-][c-][c-][c-]3)ncnc12.[Fe].[c-]1[c-][c-][cH-][c-]1
inactive: dose: 6.25 mg/kg/injection, schedule: Q01DX005 (ip), vehicle: Klucel (hydroxypropylcellulose) (HPC) 101 % of control | dose: 12.5 mg/kg/injection, schedule: Q01DX005 (ip), vehicle: Klucel (hydroxypropylcellulose) (HPC) 100 % of control | [1] 115 % of control and 86 % of control

CC(C)C(Br)C(N)=O (configuration not stated)
inactive: [6] 100 % of control | [7] 103 % of control | [8] 105 % of control

CCOC(C#CC(=O)C(C)C)OCC
inactive: dose: 60.0 mg/kg/injection, schedule: Q01DX005 (ip), vehicle: saline 101 % of control | dose: 120.0 mg/kg/injection, schedule: Q01DX005 (ip), vehicle: saline 98 % of control | dose: 240.0 mg/kg/injection, schedule: Q01DX005 (ip), vehicle: saline 101 % of control
